The results in this text go back to patent publication US9320773B2, “Compounds and therapeutic applications related to inhibition of dendritic cell immunoreceptor (DCIR) activity and signaling events” (priority 2010, dated 2016).

Data set [1] deals with DCIR expression in CD4+ T cells. As to the kind of experiment: HIV-1-mediated induction of DCIR expression in CD4+ T cells (flow cytometry). In kind it is cell-based, human. The conditions noted are these: cells pre-treated before virus infection, 3 days; result in words. The method, then:
Mitogen-activated CD4^+ T cells (1×10^6) were first either left untreated or treated for 1 h with the caspase inhibitor Z-VAD-FMK (50 nM), after which HIV-1 was added (100 ng of p24), where indicated. DCIR expression was monitored 3 days later by flow cytometry. Data shown represent the means±SD of triplicate samples from three independent experiments.
Cells (1×10^6) were first either left untreated or treated for 1 h with NAC, after which HIV-1 (100 ng of p24) was added. DCIR expression was monitored 3 days later by flow cytometry. Expression of DCIR is shown as a dotted line, whereas the continuous line represents staining obtained with an isotype-matched irrelevant control Ab. Data shown correspond to a single experiment representative of 3 independent experiments.
Cell surface expression of DCIR was monitored by flow cytometric analysis (Epics ELITE ESP, Coulter Electronics, Burlington, Canada). Cells (1×10^6 cells) were incubated for 30 min with a pool of human serum to block the unspecific binding. After washing, the cells were incubated with PE-labeled anti-DCIR (0.25 μg) for 45 min at 4° C. and then washed twice with PBS and 0.5% BSA. Non-specific staining was determined by using an isotype-matched irrelevant control antibody. After two final washes with PBS, cells were fixed in 2% paraformaldehyde for 30 min and analyzed.
For orientation: Flow cytometry measures light scatter and fluorescence of single cells or particles in a stream.

Data set [2] relates to human primary CD4+ T cells. The data set can be described thus: Apoptosis of HIV-1-infected and bystander CD4+ T cells (FITC-VAD-FMK staining). It is filed as cell-based. The conditions noted are these: NL4-3-IRES-HSA infected CD4+ T cells; data not shown. An excerpt: The HIV-1-mediated induction of apoptosis in both infected and bystander CD4^+ T cells is a well-described phenomenon. The peak of apoptosis is observed usually after 2 to 3 days, the same time frame in which we detected the HIV-1-dependent induction of DCIR. Therefore, we next assessed whether there might be a connection between the virus-induced DCIR expression and apoptosis. We initially assessed the ability of NL4-3-IRES-HSA reporter virus to drive apoptosis in CD4^+ T cells using FITC-VAD-FMK staining. This fluorochrome-labeled pan-caspase inhibitor is a specific and convenient-to-use marker of apoptotic cells, which can identify very early events of apoptosis associated with caspase activation (i.e. pre-apoptotic cells). Our studies indicate that NL4-3-IRES-HSA virions can potently mediate apoptosis in human primary CD4^+ T cells (data not shown). […] To establish a link between DCIR expression and apoptosis following HIV-1 infection, we carried out a series of investigations with the broad-spectrum caspase inhibitor Z-VAD-FMK [94].

The test system of data set [3] is DC-SIGN. The conditions noted are these: induction of apoptosis by H2O2; data not shown.
Data set [4] deals with CD4+ T cells. The data set can be described thus: Cell toxicity / viability of CD4+ T cells. It is filed as cell-based, human. The conditions noted are these: mitogen-stimulated CD4+ T cells; data not shown.
The subject of data set [5] is CD4. The conditions noted are these: induction of apoptosis by H2O2; data not shown.
The test system of data set [6] is DCIR expression in CD4+ T cells. As to the kind of experiment: DCIR expression in CD4+ T cells after H2O2 or other apoptosis inducers (flow cytometry). It is filed as cell-based, human. Here is the method: Next, DCIR expression was assessed by flow cytometry. Data shown represent the ratio of DCIR expression over basal expression. The ratio is calculated from the means±SD of triplicate samples from three independent experiments. […] FIG. 16A: […] Expression of DCIR is shown as a dotted line, whereas the continuous line represents staining obtained with an isotype-matched irrelevant control Ab. Data shown correspond to a single experiment representative of 3 independent experiments. FIG. 16B: […] Thereafter, DCIR surface expression and caspase activation were monitored by flow cytometric analysis using a double-staining method consisting of FITC-VAD-FMK followed by the R-PE-conjugated anti-DCIR. Data shown correspond to a single experiment representative of 4 independent experiments. Cell surface expression of DCIR was monitored by flow cytometric analysis (Epics ELITE ESP, Coulter Electronics, Burlington, Canada). […] After washing, the cells were incubated with PE-labeled anti-DCIR (0.25 μg) for 45 min at 4° C. and then washed twice with PBS and 0.5% BSA. Non-specific staining was determined by using an isotype-matched irrelevant control antibody. After two final washes with PBS, cells were fixed in 2% paraformaldehyde for 30 min and analyzed.

Data set [7] concerns HIV-1 NL4-3 in CD4+ T cells. Here is the method: Target CD4^+ T cells (1×10^6) were treated for 16 h with H2O2 (30 μM) to induce surface expression of DCIR. FIG. 17A: Cells were next exposed to NL4-3 (100 ng of p24) for 1 h at 37° C., extensively washed to remove unabsorbed virons before assessing the p24 content. FIG. 17B: Cells were first incubated with NL4-3 (100 ng of p24) for 2 h at 37° C., washed extensively to remove input virus and cultured in complete culture RPMI-1640 medium supplemented with rhIL-2 for the indicated number of days. Cell-free supernatants were collected and assayed for the p24 content. FIG. 17C: Cells were exposed to NL4-3 (100 ng of p24) for 2 h at 37° C., next washed extensively to remove input virus, and finally co-cultured with autologous CD4^+ T cells in complete culture RPMI-1640 medium supplemented with rhIL-2 for the indicated number of days. Cell-free supernatants were collected and assayed for the p24 content. Virus production at day 2 is depicted in the small inserts (FIGS. 17B and C). FIG. 17D: Cells were exposed to NL4-3 (100 ng of p24) for 2 h at 37° C., washed extensively to remove input virus, and maintained in complete culture medium supplemented with rhIL-2 for 3 days. Next, DCIR-negative and -positive cells (used as transmitter cells) were isolated with magnetic beads and co-cultured with uninfected CD4^+ T cells (used as recipient cells). […]

The subject of data set [8] is HIV-1 NL4-3 in Raji-CD4-DCIR cells. As to the kind of experiment: HIV-1 binding/entry assay in Raji-CD4-DCIR cells (cell-associated p24 ELISA). It is filed as cell-based. The conditions noted are these: for Binding/entry: Table 3, pharmacological inhibitors, symbols not defined; for HIV-1 binding/entry: cells pretreated with inhibitor 10 min, pulsed with NL4-3 60 min, result in words. Here is the method: (§1) FIG. 2A: Raji-CD4 and Raji-CD4-DCIR cells were either left untreated or treated with SSG (100 μg/ml) for 10 min at 37° C. Thereafter, cells were pulsed with NL4-3 for 60 min. After three washes with PBS to remove non-adsorbed virus, cell-associated virus was quantified by measuring the p24 content. Data shown correspond to the means±SD of triplicate samples from three combined independent experiments. The asterisk denotes statistically significant data (*, P<0.05; **, P<0.01). FIG. 2B: Cells were either left untransfected or transfected with a sense or antisense oligonucleotide specific for the signalling protein of interest. Next, cells were pulsed with NL4-3 for 60 min. After three washes with PBS to eliminate unbound virus, cell-associated virus was quantified by measuring the p24 content. Data shown correspond to the means±SD of triplicate samples from three combined independent experiments. The asterisk denotes statistically significant data (*, P<0.05; **, P<0.01). After gene silencing, the diminution of the targeted protein was verified by western blots, provided as an insert for each graph.
Where indicated, parental Raji-CD4 cells (DCIR-negative) or Raji-CD4-DCIR transfectants (1×10^6) were pretreated with the indicated amount of a pharmacological inhibitor for 10 min or transfected with sense or antisense oligonucleotides as described below. Cells were then pulsed with NL4-3 (100 ng of p24) for 60 min at 37° C. Next the virus-cell mixture was washed 3 times with PBS to remove unbound virus and resuspended in PBS containing 1% BSA. To assess binding/entry, the p24 content was determined by our in-house ELISA assay^33.
Raji-CD4 and Raji-CD4-DCIR cells (1×10^6 cells) were washed with OptiMEM (Invitrogen Life Technologies) without serum and antibiotics. The phosphorothioate oligodeoxynucleotides (Listed in Table 1) (Invitrogen Life Technologies) were transfected at a final concentration of 10 μM/well^35 using Oligofectamine according to the manufacturer's instructions (Invitrogen Life Technologies). Silencing efficiency was monitored by western blot analysis.
In general terms: ELISA stands for enzyme-linked immunosorbent assay.

The test system is the same in data set [9]. As to the kind of experiment: HIV-1 infection assay in Raji-CD4-DCIR cells, real-time PCR of spliced Tat mRNA. It is filed as cell-based. The conditions noted are these: Table 3, pharmacological inhibitors; symbols not defined. Here is the method: FIG. 6A: Raji-CD4 and Raji-CD4-DCIR were either left untreated or preincubated with tyrosine phosphatase inhibitor SSG (100 μg/ml); Syk inhibitor piceatannol (10 μM); Src inhibitor PP2 (10 μM); classical PKC inhibitor Gö6976 (1 μM); MAPK p38 inhibitor SB203580 (2 μM), MAP kinase inhibitor PD98059 ([…]) for 10 min. FIG. 6B: Raji-CD4 and Raji-CD4-DCIR were treated with Oligofectamine and then either left untreated or exposed to a sense or an antisense oligonucleotide against different signalling proteins during 5 hours. Next, cells were exposed to NL4-3 for 24 hours. Virus infection was determined by real-time PCR of spliced Tat mRNA. Data shown correspond to the means±SD of triplicate samples from three independent experiments. The asterisk denotes statistically significant data (*, P<0.05; ***, P<0.001).
For the infection assay performed before measuring Tat mRNA, Raji-CD4 and Raji-CD4-DCIR cells were treated with the indicated inhibitor or transfected with the indicated oligonucleotide (as described below). Cells were then pulsed with NL4-3 during 24 hours. […] The expression level of Tat mRNA was measured by real-time PCR, as described below.
Expression levels of TAT splice transcripts were determined using a Rotor-Gene™ system (Corbett Life Science). […] After elution, the amount and quality of RNA was assessed by measuring the absorbance at 260 and 280 nm. […]
(Quantitative PCR measures a nucleic acid by following its amplification.)

For data set [10], the system named is HIV-1 NL4-3 in Raji-CD4 cells. As to the kind of experiment: HIV-1 binding/entry assay in parental Raji-CD4 cells (DCIR-negative). It is filed as cell-based. The conditions noted are these: pretreated with inhibitor 10 min, result in words. Here is the method:
as §1, with “After gene silencing, the diminution of the targeted protein was verified by western blots, provided as an insert for each graph.” left out
Where indicated, parental Raji-CD4 cells (DCIR-negative) or Raji-CD4-DCIR transfectants (1×10^6) were pretreated with the indicated amount of a pharmacological inhibitor for 10 min or transfected with sense or antisense oligonucleotides as described below. […] To assess binding/entry, the p24 content was determined by our in-house ELISA assay^33.

`O=C1Nc2ccc(Cl)cc2[C@@](C#CC2CC2)(C(F)(F)F)O1` [EFV, efavirenz]: the “HIV-1-mediated DCIR expression” value in [1] is reported as “reduced significantly”. In addition, the “percentages of apoptotic cells in virus-infected and bystander cells” value in [2] was “significantly reduced”.
For the compound `OO` [H2O2, Hydrogen peroxide], in data set [3], the “surface expression of DC-SIGN” value is “not modulated”. Further, the “doses at which cell viability was reduced” value in [4] is ≥ 45 µM. Further, the “surface expression of CD4” value in [5] is “not modulated”. Also, the DCIR expression result in data set [6] (CD4+ T cells treated with inducer, H2O2 20 to 60 μM, result in words) is “dose-dependent increased”. The “DCIR expression in activated CD4+ T cells” value in data set [6] (H2O2-treated cells (30 μM, 16 h), n=3) came to 21.4±3.4%. Moreover, the “apoptotic cells also positive for DCIR” value in data set [6] (H2O2 treatment, FITC-VAD-FMK and anti-DCIR double staining, n=3) stood at 12.2±3.2%. Besides, in data set [7], the virus production entry was “statistically significant increase”. The “virus binding and entry, p24” value in data set [7] (CD4+ T cells exposed to H2O2 (30 μM, 16 h), 3.8±0.8 without H2O2) is 12.5±1.8 ng/ml of p24.
As to `O=S(=O)(NCCNC/C=C/c1ccc(Br)cc1)c1cccc2cnccc12` [H89], in data set [8], the Binding/entry result was “Ø” and the HIV-1 binding/entry entry is “not participating”. Moreover, in [9], the Infection entry is given as “Ø”.
Turning to `C/C(O)=C(\C#N)C(=O)Nc1cc(Br)ccc1Br` [LFM-A13], in [8], the Binding/entry entry is given as “Ø” and the HIV-1 binding/entry result is reported as “not involved”. Further, in data set [9], the Infection result is “Ø”.
As to `O.O.O.O.O.O.O.O.O.O=C([O-])[C@@H]1[O][Sb]2([O-])([O][Sb]34([OH])[O][C@H]([C@H](O)CO)[C@H]([O]3)[C@H](C(=O)[O-])[O]4)[O][C@H]([C@H](O)CO)[C@@H]1[O]2.[Na+].[Na+].[Na+]` [SSG, sodium stibogluconate], the HIV-1 binding/entry result in data set [8] is “decreases”; in data set [10] it was “no similar effect”.
